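Five concentrations, 48 hours, 96-well plates. At the GI50, growth is halved.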 Active and inactive are the calls of the source. No stated cut-off is given here; in the data, active = GI50 up to about 1.1 µM and inactive = higher.
How the values were obtained:
Test in all cases: NCI tumour cell line growth inhibition, 48 h
SK-MEL-28 = test system: SK-MEL-28
ACHN = test system: ACHN
LOX IMVI = test system: LOX IMVI
U-251 = test system: U-251
OVCAR-8 = test system: OVCAR-8
HCT-15 = test system: HCT-15
NCI/ADR-RES = test system: NCI/ADR-RES
SN12C = test system: SN12C
HL-60 = test system: HL-60
IGROV-1 = test system: IGROV-1
SW-620 = test system: SW-620
MDA-MB-435 = test system: MDA-MB-435
SNB-19 = test system: SNB-19
A549 = test system: A549
SK-MEL-2 = test system: SK-MEL-2
A498 = test system: A498
CCRF-CEM = test system: CCRF-CEM
UACC-257 = test system: UACC-257
UO-31 = test system: UO-31

Row | SMILES | GI50 (SK-MEL-28) | GI50 (ACHN) | GI50 (LOX IMVI) | GI50 (U-251) | GI50 (OVCAR-8) | GI50 (HCT-15) [µM] | GI50 (NCI/ADR-RES) | GI50 (SN12C) | GI50 (HL-60) | GI50 (IGROV-1) | GI50 (SW-620) | GI50 (MDA-MB-435) | GI50 (SNB-19) | GI50 (A549) | GI50 (SK-MEL-2) | GI50 (A498) | GI50 (CCRF-CEM) | GI50 (UACC-257) | GI50 (UO-31)
1 | CC1(c2ccccc2)N=c2[nH]cnc2=C(C(N)=O)N1 (stereo not given) | > 100 µM (inactive) | > 100 µM (inactive) | > 100 µM (inactive) | > 100 µM (inactive) | > 100 µM (inactive) | > 100 | > 100 µM (inactive) | > 100 µM (inactive) | > 100 µM (inactive) | > 100 µM (inactive) | > 100 µM (inactive) | > 100 µM (inactive) | > 100 µM (inactive) | > 100 µM (inactive) | > 100 µM (inactive) | > 100 µM (inactive) | > 100 µM (inactive) | > 100 µM (inactive) | –
2 | CCCCCC(=O)CCCCCCCC(O)CC(=O)OCC (stereo not given) | > 100 µM (inactive) | > 100 µM (inactive) | > 100 µM (inactive) | 64.3 µM (inactive) | > 100 µM (inactive) | > 100 | > 100 µM (inactive) | > 100 µM (inactive) | 48.9 µM (inactive) | > 100 µM (inactive) | > 100 µM (inactive) | > 100 µM (inactive) | > 100 µM (inactive) | > 100 µM (inactive) | – | > 100 µM (inactive) | > 100 µM (inactive) | > 100 µM (inactive) | > 100 µM (inactive)
3 | CC(C)CCCC(C)[C@H]1CCC2[C@@H]3CCC4Cc5nc6c(nc5C[C@]4(C)C3CC[C@@]21C)CC1CC[C@@H]2C(CC[C@@]3(C)C2CC[C@@H]3O)[C@@]1(C)C6 (stereo not given in full) | > 100 µM (inactive) | > 100 µM (inactive) | > 100 µM (inactive) | > 100 µM (inactive) | > 100 µM (inactive) | > 100 | > 100 µM (inactive) | > 100 µM (inactive) | > 100 µM (inactive) | > 100 µM (inactive) | > 100 µM (inactive) | > 100 µM (inactive) | > 100 µM (inactive) | > 100 µM (inactive) | > 100 µM (inactive) | > 100 µM (inactive) | > 100 µM (inactive) | > 100 µM (inactive) | > 100 µM (inactive)
4 | Cc1cc(C)n(C(C)(C(=O)Cc2ccccc2)n2nc(C)cc2C)n1 | > 100 µM (inactive) | > 100 µM (inactive) | > 100 µM (inactive) | > 100 µM (inactive) | > 100 µM (inactive) | > 100 | > 100 µM (inactive) | > 100 µM (inactive) | > 100 µM (inactive) | > 100 µM (inactive) | > 100 µM (inactive) | > 100 µM (inactive) | > 100 µM (inactive) | > 100 µM (inactive) | > 100 µM (inactive) | > 100 µM (inactive) | – | – | > 100 µM (inactive)
5 | O=C1C=C(N2CCN(c3ncccn3)CC2)C(=O)c2c(O)ccc(O)c21 | > 100 µM (inactive) | > 100 µM (inactive) | > 100 µM (inactive) | > 100 µM (inactive) | > 100 µM (inactive) | > 100 | > 100 µM (inactive) | > 100 µM (inactive) | > 100 µM (inactive) | > 100 µM (inactive) | > 100 µM (inactive) | 7.21 µM (inactive) | > 100 µM (inactive) | > 100 µM (inactive) | – | > 100 µM (inactive) | > 100 µM (inactive) | > 100 µM (inactive) | > 100 µM (inactive)
6 | C=C1C(=O)OC2/C=C(/C)C(OC(C)=O)CC(O)/C(C)=C\C(OC(=O)/C(C)=C\C)C12 (stereo not given) | 43.2 µM (inactive) | 42.8 µM (inactive) | 28.5 µM (inactive) | > 100 µM (inactive) | 35.3 µM (inactive) | 36.6 | 58.9 µM (inactive) | 50.6 µM (inactive) | 17 µM (inactive) | > 100 µM (inactive) | 25.8 µM (inactive) | 81.8 µM (inactive) | > 100 µM (inactive) | > 100 µM (inactive) | > 100 µM (inactive) | > 100 µM (inactive) | 28.6 µM (inactive) | > 100 µM (inactive) | –
7 | CN(C)c1ccc(/C=N/NC(=O)c2cnc3ccccc3c2)cc1 | > 100 µM (inactive) | > 100 µM (inactive) | > 100 µM (inactive) | 38.7 µM (inactive) | 98.2 µM (inactive) | > 100 | > 100 µM (inactive) | > 100 µM (inactive) | > 100 µM (inactive) | 51.1 µM (inactive) | > 100 µM (inactive) | 4.03 µM (inactive) | 48 µM (inactive) | > 100 µM (inactive) | > 100 µM (inactive) | > 100 µM (inactive) | – | > 100 µM (inactive) | > 100 µM (inactive)
8 | CC(C)(C)CC(C)(C)NC(=S)NO | > 100 µM (inactive) | > 100 µM (inactive) | > 100 µM (inactive) | – | > 100 µM (inactive) | > 100 | > 100 µM (inactive) | > 100 µM (inactive) | > 100 µM (inactive) | > 100 µM (inactive) | > 100 µM (inactive) | > 100 µM (inactive) | > 100 µM (inactive) | > 100 µM (inactive) | > 100 µM (inactive) | > 100 µM (inactive) | > 100 µM (inactive) | > 100 µM (inactive) | > 100 µM (inactive)
9 | COc1ccc(CCNC(=O)[C@H]2CCCC[C@@H]2CCO)cc1OC | > 100 µM (inactive) | > 100 µM (inactive) | – | > 100 µM (inactive) | > 100 µM (inactive) | > 100 | > 100 µM (inactive) | > 100 µM (inactive) | > 100 µM (inactive) | > 100 µM (inactive) | > 100 µM (inactive) | > 100 µM (inactive) | > 100 µM (inactive) | > 100 µM (inactive) | > 100 µM (inactive) | > 100 µM (inactive) | > 100 µM (inactive) | > 100 µM (inactive) | 54.7 µM (inactive)
10 | O=C(c1cccs1)c1nccc2c1cnc1ccccc12 | > 100 µM (inactive) | 38.5 µM (inactive) | > 100 µM (inactive) | 41.2 µM (inactive) | 31.4 µM (inactive) | > 100 | > 100 µM (inactive) | > 100 µM (inactive) | > 100 µM (inactive) | – | > 100 µM (inactive) | > 100 µM (inactive) | > 100 µM (inactive) | > 100 µM (inactive) | > 100 µM (inactive) | 63.8 µM (inactive) | > 100 µM (inactive) | > 100 µM (inactive) | > 100 µM (inactive)
11 | CN(C)C(=O)C1CCN(Cc2c[nH]c3ccccc23)CC1 | > 100 µM (inactive) | > 100 µM (inactive) | > 100 µM (inactive) | > 100 µM (inactive) | > 100 µM (inactive) | > 100 | > 100 µM (inactive) | > 100 µM (inactive) | > 100 µM (inactive) | > 100 µM (inactive) | 17 µM (inactive) | > 100 µM (inactive) | > 100 µM (inactive) | > 100 µM (inactive) | > 100 µM (inactive) | > 100 µM (inactive) | – | > 100 µM (inactive) | > 100 µM (inactive)
12 | O=[N+]([O-])c1ccc(C2Nn3c(nnc3-c3cccc([N+](=O)[O-])c3)S2)cc1 (stereo not given) | – | > 100 µM (inactive) | 82 µM (inactive) | > 100 µM (inactive) | 92.3 µM (inactive) | > 100 | > 100 µM (inactive) | > 100 µM (inactive) | 89.3 µM (inactive) | > 100 µM (inactive) | 71.9 µM (inactive) | 51.5 µM (inactive) | > 100 µM (inactive) | > 100 µM (inactive) | 66.7 µM (inactive) | > 100 µM (inactive) | 36.8 µM (inactive) | > 100 µM (inactive) | > 100 µM (inactive)
13 | COC(=O)C1CCC(=O)N1C(c1ccccc1)c1cc(OC)c(OC)c(OC)c1 (stereo not given) | 99.8 µM (inactive) | > 100 µM (inactive) | 56.2 µM (inactive) | 80.4 µM (inactive) | > 100 µM (inactive) | 42.6 | 76 µM (inactive) | 80.5 µM (inactive) | 29.4 µM (inactive) | 63.5 µM (inactive) | 46.7 µM (inactive) | 22.3 µM (inactive) | 76.4 µM (inactive) | 54.2 µM (inactive) | – | 82.4 µM (inactive) | 53.3 µM (inactive) | > 100 µM (inactive) | 55.1 µM (inactive)
14 | CNC(=S)N/N=C/c1cccc(C)n1 | 56.5 µM (inactive) | 28.2 µM (inactive) | 24.7 µM (inactive) | 26.1 µM (inactive) | 23.6 µM (inactive) | 26 | 23.8 µM (inactive) | 26.4 µM (inactive) | > 45.5 µM (inactive) | 44.7 µM (inactive) | 49.1 µM (inactive) | 45 µM (inactive) | 51.9 µM (inactive) | 39 µM (inactive) | 49.1 µM (inactive) | 20.7 µM (inactive) | 23.4 µM (inactive) | 32.7 µM (inactive) | 20.7 µM (inactive)
15 | COc1ccc(OC)c(C#Cc2ccc(OC)c(C(=O)NCCc3ccc(F)cc3)c2)c1 | 1.73 µM (inactive) | > 100 µM (inactive) | > 100 µM (inactive) | 6.07 µM (inactive) | > 100 µM (inactive) | 4.45 | 7.8 µM (inactive) | – | 5.13 µM (inactive) | 3.53 µM (inactive) | 4.02 µM (inactive) | 1.23 µM (inactive) | 61.2 µM (inactive) | 7.55 µM (inactive) | 5.05 µM (inactive) | 9.84 µM (inactive) | – | > 100 µM (inactive) | 28.3 µM (inactive)

From ChEMBL document CHEMBL1201862, “PubChem BioAssay data set” (2004)
